Results: US20100184770A1, “COMPOUNDS” (Glaxo Group Limited, priority 2006, published 2010)
Where a name gives a salt, the structure may show the parent alone.

Molecular target: T1, human H1 receptor (Homo sapiens, UniProt P35367)
T1 construct: expressed in transfected cells
Assay: Histamine H1 functional antagonist assay: determination of antagonist duration (washout, FLIPR)
Format: cell-based
Settings: at one or more time points after washout
Experimental: 1. Generation of Histamine H1 Cell Line The human H1 receptor is cloned using known procedures described in the literature [Biochem. Biophys. Res. Commun., 201(2):894 (1994)]. Chinese hamster ovary (CHO) cells stably expressing the human H1 receptor are generated according to known procedures described in the literature [Br. J. Pharmacol., 117(6):1071 (1996)].
To determine the antagonist duration, cells are cultured overnight in non-coated black-walled clear bottom 96-well tissue culture plates, are washed with PBS and are incubated with a concentration of antagonist chosen to give an approximate DR in the range 30-300. Following the 30 min antagonist incubation period, the cells are washed two or three times with 200 μl of PBS and then 100 μl Tyrodes buffer is added to each well to initiate antagonist dissociation. Following incubation for predetermined times, typically 30-270 min at 37° C., the cells are then washed again with 200 μl PBS and are incubated with 100 Tyrodes buffer containing Brilliant Black, probenecid and Fluo-4 for 45 min at 37° C., as described above. After this period, the cells are challenged with histamine in the FLIPR™ as described above. The dose ratio at each time point is used to determine the fractional H1 receptor occupancy by the following equation: fractional receptor occupancy=(DR-1)/DR. The decrease in receptor occupancy over time approximates to a straight line and is analysed by linear regression. The slope of this straight line fit is used as an index of the dissociation rate of the antagonist. The dose ratios for antagonist treated cells and for antagonist treated and washed cells at each time point are used to calculate a relative dose ratio (rel DR) which is also used as an index of antagonist duration. Antagonists with long duration of action produce rel DR values close to 1, and antagonists with short duration of action produce rel DR values that approaches the dose ratio value obtained for antagonist treatment alone.

T1 sequence (P35367 whole entry): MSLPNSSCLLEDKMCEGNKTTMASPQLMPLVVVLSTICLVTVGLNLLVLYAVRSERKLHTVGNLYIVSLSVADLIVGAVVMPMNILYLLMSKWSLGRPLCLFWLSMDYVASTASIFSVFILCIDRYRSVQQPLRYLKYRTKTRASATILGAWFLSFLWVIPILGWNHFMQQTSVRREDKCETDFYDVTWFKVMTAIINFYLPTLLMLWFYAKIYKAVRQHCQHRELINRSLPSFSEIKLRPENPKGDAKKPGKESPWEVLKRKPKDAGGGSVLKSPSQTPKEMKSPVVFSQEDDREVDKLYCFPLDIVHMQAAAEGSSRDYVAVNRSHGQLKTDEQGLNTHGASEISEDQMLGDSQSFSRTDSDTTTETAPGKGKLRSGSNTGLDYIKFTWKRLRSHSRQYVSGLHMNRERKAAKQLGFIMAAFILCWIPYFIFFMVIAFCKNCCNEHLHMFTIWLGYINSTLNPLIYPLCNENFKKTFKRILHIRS

| SMILES | duration of action compared with azelastine in the histamine H1 functional antagonist assay |
| --- | --- |
| CC(C)(C)NC(=O)CN1CCCC1Cn1nc(Cc2ccc(Cl)cc2)c2ccccc2c1=O.O=C(O)C(F)(F)F [Example 30, 2-((2R)-2-{[4-[(4-chlorophenyl)methyl]-1-oxo-2(1H)-phthalazinyl]methyl}-1-pyrrolidinyl)-N-(1,1-dimethylethyl) acetamide, trifluoroacetate] | longer duration of action than azelastine |
| CC(C)c1noc(CCN2CCC[C@@H]2Cn2nc(Cc3ccc(Cl)cc3)c3ccccc3c2=O)n1.Cl [Example 61, 4-[(4-Chlorophenyl)methyl]-2-[((2R)-1-{2-[3-(1-methylethyl)-1,2,4-oxadiazol-5-yl]ethyl}-2-pyrrolidinyl)methyl]-1(2H)-phthalazinone, hydrochloride] | longer duration of action than azelastine |
| CCCNC(=O)CCCN1CCC[C@@H]1Cn1nc(Cc2ccc(Cl)cc2)c2ccccc2c1=O.Cl [Example 26, 4-((2R)-2-{[4-[(4-Chlorophenyl)methyl]-1-oxo-2(1H)-phthalazinyl]methyl}-1-pyrrolidinyl)-N-propylbutanamide, hydrochloride] | longer duration of action than azelastine |
| CC(C)C(=O)NCCN1CCC[C@@H]1Cn1nc(Cc2ccc(Cl)cc2)c2ccccc2c1=O.O=C(O)C(F)(F)F [Example 41, N-[2-((2R)-2-{[4-[(4-chlorophenyl)methyl]-1-oxo-2(1H)-phthalazinyl]methyl}-1-pyrrolidinyl)ethyl]-2-methylpropanamide, trifluoroacetate] | longer duration of action than azelastine |
| O=C(CCN1CCC[C@@H]1Cn1nc(Cc2ccc(Cl)cc2)c2ccccc2c1=O)N1CCCCC1.O=C(O)C(F)(F)F [Example 12, 4-[(4-chlorophenyl)methyl]-2-({(2R)-1-[3-oxo-3-(1-piperidinyl)propyl]-2-pyrrolidinyl}methyl)-1(2H)-phthalazinone, trifluoroacetate] | longer duration of action than azelastine |
| COCCC(=O)NCCCN1CCC[C@@H]1Cn1nc(Cc2ccc(Cl)cc2)c2ccccc2c1=O [Example 42, N-[3-((2R)-2-{[4-[(4-Chlorophenyl)methyl]-1-oxo-2(1H)-phthalazinyl]methyl}-1-pyrrolidinyl)propyl]-3-(methyloxy)propanamide, trifluoroacetate] | longer duration of action than azelastine |
| COCCNC(=O)CCCN1CCC[C@@H]1Cn1nc(Cc2ccc(Cl)cc2)c2ccccc2c1=O.O=CO [Example 24, Formic acid-4-((2R)-2-{[4-[(4-chlorophenyl)methyl]-1-oxo-2(1H)-phthalazinyl]methyl}-1-pyrrolidinyl)-N-[2-(methyloxy)ethyl] butanamide (1:1)] | longer duration of action than azelastine |
| O=C(CCN1CCC[C@@H]1Cn1nc(Cc2ccc(Cl)cc2)c2ccccc2c1=O)NCCF.O=C(O)C(F)(F)F [Example 1, 3-((2R)-2-{[4-[(4-Chlorophenyl)methyl]-1-oxo-2(1H)-phthalazinyl]methyl}-1-pyrrolidinyl)-N-(2-fluoroethyl)propanamide, trifluoroacetate] | longer duration of action than azelastine |
| COCC(=O)NCCN1CCC[C@@H]1Cn1nc(Cc2ccc(Cl)cc2)c2ccccc2c1=O.O=C(O)C(F)(F)F [Example 39, N-[2-((2R)-2-{[4-[(4-chlorophenyl)methyl]-1-oxo-2(1H)-phthalazinyl]methyl}-1-pyrrolidinyl)ethyl]-2-(methyloxy)acetamide, trifluoroacetate] | longer duration of action than azelastine |
